How the values were obtained:
Format in all cases: cell-based, human
[1] = system: NSCLC cell line RERF-LC-MA; assay: CNDAC combinations (alamar blue, Calcusyn Combination Index); settings: named agent in combination with CNDAC, simultaneous treatment 72 h
Protocol: Experiments in the NSCLC cell lines H1299 or RERF-LC-MA were performed in 96-well plates, with cells seeded at a density of 3,000/well, in DMEM containing 10% (v/v) FCS. Stock solutions of all drugs were made up in dimethylsulfoxide (DMSO), with the exception of gemcitabine, which was dissolved in 0.9% (w/v) sterile saline solution.
For experimental assessment of potential synergistic interactions, the concomitant treatment regime involved simultaneous treatment of cells with CNDAC and the other agent under investigation for 72 h, alongside suitable controls of cells treated with the individual compounds alone for 72 hr. In the sequential treatment regimes, one drug was added to the cells 2 h after plating, and left for 24 h. Media was then aspirated, replaced with fresh media containing the second drug and incubated for 72 h. The two individual treatment controls for the sequential treatment regime involved substituting one of the drug treatments with drug-free media. After drug treatment, the number of cells in each well was estimated by incubating for 1 h in media containing 10% alamar blue (Roche, Lewes, East Sussex, U.K.) and measuring the absorbance at 488-595 nm. Drug interactions were analysed using the Calcusyn software package (BioSoft, Cambridge, U.K.) described below. A Combination Index (C.I.) of 1 indicates an additive drug interaction, whereas a C.I. greater than 1 is antagonistic and a score lower than 1 is synergistic.

HOP92 = assay: MTT growth inhibition assay, single agent; settings: Homo sapiens, HOP-92, 24 hours exposure, read-out: Antiproliferative effects IC50s (MTT assay)
Method in brief: (§1)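 Cells in RPMI/10% FCS were seeded at 2×10^3 cells/well and treated 24 h later with increasing concentrations for 1, 24 or 48 h, washed, then kept 72 h drug-free. Viability by MTT (0.4 mg/ml, 4 h, 37 °C), A560; growth inhibition as % of untreated controls.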

MCF7 = assay: MTT growth inhibition assay, single agent; settings: Homo sapiens, 24 hours exposure, read-out: Antiproliferative effects IC50s (MTT assay)
Method in brief: as §1

HOP62 = assay: MTT growth inhibition assay, single agent; settings: Homo sapiens, HOP-62, 24 hours exposure, read-out: Antiproliferative effects IC50s (MTT assay)
Method in brief: as §1

HT29 = assay: MTT growth inhibition assay, single agent; settings: Homo sapiens, HT-29, 24 hours exposure, read-out: Antiproliferative effects IC50s (MTT assay)
Method in brief: as §1

HCT116 = assay: MTT growth inhibition assay, single agent; settings: Homo sapiens, HCT-116, 24 hours exposure, read-out: Antiproliferative effects IC50s (MTT assay)
Method in brief: as §1

HCC2998 = assay: MTT growth inhibition assay, single agent; settings: Homo sapiens, HCC 2998, 24 hours exposure, read-out: Antiproliferative effects IC50s (MTT assay)
Method in brief: as §1

IGROV1 = assay: MTT growth inhibition assay, single agent; settings: Homo sapiens, IGROV-1, 24 hours exposure, read-out: Antiproliferative effects IC50s (MTT assay)
Method in brief: as §1

OVCAR1 = assay: MTT growth inhibition assay, single agent; settings: Homo sapiens, 24 hours exposure, read-out: Antiproliferative effects IC50s (MTT assay)
Method in brief: as §1

## CC(=O)O[C@@]12CO[C@@H]1C[C@H](O)[C@@]1(C)C(=O)[C@H](O)C3=C(C)[C@@H](OC(=O)[C@H](O)[C@@H](NC(=O)OC(C)(C)C)c4ccccc4)C[C@@](O)([C@@H](OC(=O)c4ccccc4)[C@H]21)C3(C)C [Docetaxel]
[1]
  Combination Index at ED50, Concomitant: 0.9
  Combination Index at ED75, Concomitant: 0.97
  Combination Index at ED90, Concomitant: 1.1
HOP92
  IC50: 5 ± 1 nM
MCF7
  IC50: 10 ± 4 nM
HOP62
  IC50: 20 ± 40 nM
HT29
  IC50: 10 ± 2 nM
HCT116
  IC50: 10 ± 20 nM
HCC2998
  IC50: 4 ± 1 nM
IGROV1
  IC50: 20 ± 10 nM
OVCAR1
  IC50: 50000 ± 120 nM

## COc1cccc2c1C(=O)c1c(O)c3c(c(O)c1C2=O)C[C@@](O)(C(=O)CO)C[C@@H]3O[C@H]1C[C@H](N)[C@H](O)[C@H](C)O1 [Doxorubicin]
HOP92
  IC50: 100 ± 50 nM
MCF7
  IC50: 700 ± 100 nM
HOP62
  IC50: 140 ± 40 nM
HT29
  IC50: 1070 ± 160 nM
HCT116
  IC50: 100 ± 20 nM
HCC2998
  IC50: 700 ± 140 nM
IGROV1
  IC50: 1300 ± 300 nM
OVCAR1
  IC50: 1000 ± 200 nM
